# Assay results taken from patent US11155586B2, “Cystine knot scaffold platform” (Genentech, Inc., priority 2015, dated 2021).
# Positions of bridges follow the written chain, without caps; N, C: chain ends. Residues, ends and D or L forms follow the SMILES beside them.
# What was measured:
# [1] = molecular target: T1, hVEGF-A (8-109) (Homo sapiens, UniProt P15692); test: SPR binding assay (BIACORE 3000, 37° C.)
# T1 sequence (P15692 34-135 isoform P15692-4): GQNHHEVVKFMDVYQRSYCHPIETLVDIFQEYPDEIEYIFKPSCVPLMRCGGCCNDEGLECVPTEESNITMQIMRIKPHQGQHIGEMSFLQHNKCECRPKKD
# Summary of the method: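 VEGF-A, biotinylated and captured on streptavidin sensor or amine-coupled to CM5 at pH 5.0, to about 400 RU. Peptide concentration series in HBS-EP with 0.1% DMSO injected at […]; kinetics and affinities from 1:1 binding model fits.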
# [2] = molecular target: T2, VEGF human 165 (Homo sapiens, UniProt P15692); test: SPR binding assay; settings: for ka / kd: human 165, Table 30
# T2 sequence (P15692 27-191 isoform P15692-4): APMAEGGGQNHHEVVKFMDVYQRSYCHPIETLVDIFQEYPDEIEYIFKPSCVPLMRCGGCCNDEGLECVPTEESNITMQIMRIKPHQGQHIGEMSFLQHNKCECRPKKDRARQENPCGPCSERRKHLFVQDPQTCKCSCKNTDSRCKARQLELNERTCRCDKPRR
# Procedure: (§1) Depending on the format of the assay either a streptavidin sensor (SA) or a dextran-coated (CM5) sensor was utilized as described below.
# (§2) For use with the SA sensor, VEGF-A was first biotinylated (no more than 2 biotin/VEGF-A) by incubating the protein with EZ-link NHS-PEG4-Biotin (Pierce) in a 1:1.5 molar ratio respectively, in PBS for 2 hours on ice. Reaction was then quenched by addition of 10 molar excess of Glycine pH 8.0 and the sample was buffer exchanged into PBS using an Amicon 0.5 mL 3000 MWCO ultra-centrifugal filters (EMD Millipore). The biotinylation state of the protein was verified by LC-MS analysis. Biotinylated VEGF-A was then captured on the surface until a resonance unit (RU) signal of about ˜400. For immobilization of VEGF-A on CM5 sensor, the surface was first activated with a mixture of N-ethyl-N′-(3-dimethylaminopropyl)carbodiimide hydrochloride and N-hydroxysuccinimide (EDC/NHS) according to the supplier instructions. VEGF-A was then diluted into coupling buffer (0.1 M Acetate Buffer, pH 5.0) and injected until the signal reached about ˜400 RU followed by a wash with 1 M ethanolamine pH 8.0 to quench remaining activated sites.
# (§3) Following the capture step, a series of the peptide concentrations were prepared in HBS-EP buffer with matching DMSO concentrations to 0.1% and injected at a flow rate of […]. The resulting sensorgrams were then analyzed using a 1:1 binding model to obtain kinetic data and affinities using Scrubber 2.0 (BioLogic Software).
# [3] = molecular target: T3, VEGF mouse 164 (Mus musculus, UniProt Q00731); test: SPR binding assay; settings: for ka / kd: mouse 164, Table 30
# T3 sequence (Q00731 27-190 isoform Q00731-2): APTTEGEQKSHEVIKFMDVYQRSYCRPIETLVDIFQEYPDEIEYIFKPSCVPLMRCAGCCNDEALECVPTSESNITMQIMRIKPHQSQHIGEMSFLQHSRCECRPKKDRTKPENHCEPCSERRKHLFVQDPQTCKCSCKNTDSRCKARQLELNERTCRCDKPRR
# Procedure: as §1, §2, §3
# [4] = molecular target: T4, rabbit VEGF-A (Oryctolagus cuniculus, UniProt G1T1L9); test: SPR binding assay; settings: for ka / kd: rabbit, Table 30
# T4 sequence (G1T1L9 1-398): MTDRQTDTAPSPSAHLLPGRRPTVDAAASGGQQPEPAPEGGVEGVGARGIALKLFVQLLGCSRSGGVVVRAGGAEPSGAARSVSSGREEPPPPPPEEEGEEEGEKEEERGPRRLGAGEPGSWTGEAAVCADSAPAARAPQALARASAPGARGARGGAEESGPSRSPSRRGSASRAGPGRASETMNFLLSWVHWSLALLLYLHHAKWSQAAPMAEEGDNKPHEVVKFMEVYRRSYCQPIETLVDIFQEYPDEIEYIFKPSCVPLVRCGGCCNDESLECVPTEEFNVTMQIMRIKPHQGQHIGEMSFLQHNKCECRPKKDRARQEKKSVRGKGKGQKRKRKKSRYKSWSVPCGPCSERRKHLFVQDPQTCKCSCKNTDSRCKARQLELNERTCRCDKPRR
# Procedure: as §1, §2, §3
# [5] = molecular target: T5, rat VEGF-A (Rattus norvegicus, UniProt P16612); test: SPR binding assay; settings: for ka / kd: rat, Table 30
# T5 sequence (P16612 27-139 limits assumed): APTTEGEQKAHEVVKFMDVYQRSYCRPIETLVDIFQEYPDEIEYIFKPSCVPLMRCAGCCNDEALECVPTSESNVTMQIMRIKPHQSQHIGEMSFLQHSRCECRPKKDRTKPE
# Procedure: as §1, §2, §3
# [6] = molecular target: hVEGF-A mutants (Y21A, K48A, Q89A, F17A/M81A); test: SPR binding assay, hVEGF-A mutants; parameters: species or system human; kd: unit not given here
# Procedure: as §1, §2, §3
# The binding interface of VEGF_CKP9.54.90 on VEGF-A overlaps with that of the natural receptors and G6.31 antibody (FIGS. 7 and 8). […] However, K48A mutation enhanced the binding of VEGF_CKP9.54.90 by ˜2-3 fold, a behavior that is similar to that observed with the G6.31 antibody (Fuh et al. (2006) J. Biol. Chem. 281, 6625-6631).
# [7] = test system: trypsin; test: Trypsin protease activity, peptide substrate cleavage assay; type: biochemical; settings: FIG. 3
# [8] = molecular target: T6, VEGF-A and KDR (Homo sapiens, UniProt P15692); test: Competition ELISA, KDR-VEGF interaction; type: binding
# T6 sequence (P15692 207-395): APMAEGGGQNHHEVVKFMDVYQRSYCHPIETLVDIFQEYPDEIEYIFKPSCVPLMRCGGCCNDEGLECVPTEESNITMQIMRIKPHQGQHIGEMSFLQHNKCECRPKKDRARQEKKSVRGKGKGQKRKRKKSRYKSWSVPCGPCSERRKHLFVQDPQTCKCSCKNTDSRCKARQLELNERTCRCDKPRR
# Procedure: Binding specificity of each peptide was established by competition ELISA. […] After blocking with block buffer (PBS with 0.5% BSA and 0.05% TWEEN®20) for 2 hours at room temperature, the receptor-Fc fusions or biotinylated receptors were serially diluted using assay buffer (PBS with 0.5% BSA and 0.05% TWEEN®20) and incubated for 1 hour at room temperature. […] Competition ELISA was conducted in an identical fashion as described above except after blocking, a mixture of serially diluted peptide containing a constant concentration of receptor-Fc fusion or biotinylated receptor (concentration of receptor was set to EC60) was added and incubated for 1 hour. All recombinant human proteins and antibodies were purchased from R &D Systems (Minneapolis, Minn.).
SMILES,"kd ([1]; hVEGF-A (8-109), Table 29)",kd ([1]; hVEGF-A WT),"kd ([1]; human 8-109, Table 30)",ka [2],kd [2],ka [3],kd [3],ka [4],kd [4],ka [5],kd [5],Kd ([6]; hVEGF-A mutant K48A) [nM],ka ([6]; hVEGF-A mutant K48A),kd ([6]; hVEGF-A mutant K48A),Kd ([6]; hVEGF-A mutant Q89A) [nM],ka ([6]; hVEGF-A mutant Q89A),kd ([6]; hVEGF-A mutant Q89A),Kd ([6]; hVEGF-A mutant Y21A) [nM],ka ([6]; hVEGF-A mutant Y21A),kd ([6]; hVEGF-A mutant Y21A),other results
"CC[C@H](C)[C@@H]1NC(=O)[C@H](CC(=O)O)NC(=O)[C@@H]2CCCN2C(=O)CNC(=O)[C@@H]2CSSC[C@H](NC(=O)[C@H](CC(=O)O)NC1=O)C(=O)N[C@@H](CC(C)C)C(=O)N[C@@H](C)C(=O)NCC(=O)N[C@H](C(=O)N[C@H](C(=O)N[C@H]1CSSC[C@@H](C(=O)NCC(=O)O)NC(=O)[C@H](CO)NC(=O)[C@H](CC(N)=O)NC(=O)[C@H](Cc3ccc(O)cc3)NC(=O)[C@H](Cc3c[nH]c4ccccc34)NC(=O)[C@H](Cc3c[nH]cn3)NC1=O)C(C)C)CSSC[C@H](NC(=O)CN)C(=O)N[C@@H](CC(=O)O)C(=O)N[C@@H](C(C)C)C(=O)N[C@@H](CCSC)C(=O)N[C@@H](CCC(N)=O)C(=O)N1CCC[C@H]1C(=O)N[C@@H](Cc1ccc(O)cc1)C(=O)N[C@@H](Cc1c[nH]c3ccccc13)C(=O)NCC(=O)N2 [VEGF_CKP9.63.12] (H-GCDVMQPYWGCGPDIDCLAGCVCHWYNSCG-OH; disulfide 2-21, 11-17, 23-29 (inferred); N-terminus and C-terminus assumed)",0.10,0.0096,2.50 × 10^−2,4.65 × 10^6,2.01 × 10^−2,1.04 × 10^6,1.32 × 10^−2,6.91 × 10^6,1.78 × 10^−2,6.44 × 10^6,2.59 × 10^−2,0.33,5.30 × 10^7,0.017,36.5,7.43 × 10^6,0.47,9.84,1.99 × 10^7,1.48 × 10^−1,inhibition of trypsin protease activity [7]: do not inhibit
"CSCC[C@@H]1NC(=O)[C@H](C(C)C)NC(=O)[C@H](CC(=O)O)NC(=O)[C@@H](NC(=O)CN)CSSC[C@@H](C(=O)N[C@H](C(=O)N[C@H]2CSSC[C@@H](C(=O)NCC(=O)O)NC(=O)[C@H](CO)NC(=O)[C@H](CC(N)=O)NC(=O)[C@H](Cc3ccc(O)cc3)NC(=O)[C@H](Cc3c[nH]c4ccccc34)NC(=O)[C@H](Cc3c[nH]cn3)NC2=O)C(C)C)NC(=O)CNC(=O)[C@H](C)NC(=O)[C@H](CC(C)C)NC(=O)[C@@H]2CSSC[C@H](NC(=O)CNC(=O)[C@H](Cc3c[nH]c4ccccc34)NC(=O)[C@H](Cc3ccc(O)cc3)NC(=O)[C@@H]3CCCN3C(=O)[C@H](CCC(N)=O)NC1=O)C(=O)N[C@@H](CCCCN)C(=O)N[C@@H](CCC(N)=O)C(=O)N[C@@H](CC(=O)O)C(=O)N[C@@H](CO)C(=O)N[C@@H](CC(=O)O)C(=O)N2 [VEGF_CKP9.63] (H-GCDVMQPYWGCKQDSDCLAGCVCHWYNSCG-OH; disulfide 2-21, 11-17, 23-29 (inferred); N-terminus and C-terminus assumed)",1.6,0.1624,1.81 × 10^−1,3.40 × 10^5,1.30 × 10^−1,5.57 × 10^5,1.60 × 10^−1,4.24 × 10^5,1.30 × 10^−1,4.56 × 10^5,2.46 × 10^−1,28.4,5.72 × 10^5,0.02,2000,2.66 × 10^5,0.51,585,7.52 × 10^5,0.4814,"IC50 [8]: 10.8 nM; Kd ([1]; KD (nM), hVEGF-A WT): 100 nM; Kd ([1]; KD (nM), human 8-109, Table 30): 281 nM; Kd ([1]; KD, hVEGF-A (8-109), Table 29): 100 nM; ka ([1]; human 8-109, Table 30): 6.62 × 10^5; Kd [2]: 382 nM; Kd [3]: 289 nM; Kd [4]: 311 nM; Kd [5]: 524 nM"
